The values that follow are results of earlier work, collected in patent publication US20070015719A1 (Elan Pharma International Limited, priority 2005, published 2007).

For this data set the following is noted: in acidic solutions.

As to “6-o-methyl erythromycin A [clarithromycin]”, the stability entry is on record as “stable”.
